# Measured values taken from US20160030416A1, “METHODS OF TREATING B2-BRADYKININ RECEPTOR MEDIATED ANGIOEDEMA” (SHIRE HUMAN GENETIC THERAPIES, INC., priority 2013, published 2016).
# Tests used:
# plasma extravasation = assay: Plasma extravasation (Evans blue in bladder), oral gavage, female WT mice; format: in vivo
# Description: The efficacy of CFMQ (HGT3711) following orally administration was studied in female WT mice. Eight mice per group received either vehicle or CFMQ (HGT3711) at 1.0, 3.0, 10, or 30 mg/kg by oral gavage. An additional dose group received Firazyr® (icatibant-0.4 mg/kg) as a subcutaneous (SC) injection. Similar to the previous studies, inhibition of EB content in the dried bladder (μg EB per milligram of tissue weight) was utilized as measurement of efficacy.
# [1] = target: T1, μ (h) (MOP) (agonist site) (Homo sapiens, UniProt P35372); assay: Off-target receptor binding: μ (MOP)
# T1 construct: expressed in transfected cells; host or cells: CHO or HEK 293 (not assigned per receptor)
# Description: (§1) To determine the affinity to the B2-bradykinin receptor, CFMQ was compared to a diverse set of receptors and reference agents in an in vitro assay using cells from rat heart, urinary bladder, cerebral cortex, as well as human recombinant cells (CHO and HEK 293) and other cell lines. Each assay included a ligand at a specific concentration (concentration ranging from 0.007-10 nM), in addition to a non-specific ligand (concentration ranging from […]) for incubation periods ranging from 15 minutes to 6 hours at 4°-37° C. The specific binding to the receptors was defined as the difference between the total binding and the nonspecific binding, determined in the presence of an excess of unlabeled CFMQ. The concentration causing a half-maximal inhibition of control specific binding (IC50 values) and inhibition constants (Ki) were determined, and each reference compound was within the accepted limits of the historic average (±0.5 log units).
# BZD (peripheral) = target: T2, BZD (peripheral) (Rattus norvegicus, UniProt P16257); assay: Off-target receptor binding: BZD (peripheral)
# T2 construct: from tissue
# Description: as §1
# NK3 (h) = target: T3, NK3 (h) (Homo sapiens, UniProt P29371); assay: Off-target receptor binding: NK3
# T3 construct: expressed in transfected cells; host or cells: CHO or HEK 293 (not assigned per receptor)
# T3 sequence (P29371 1-465): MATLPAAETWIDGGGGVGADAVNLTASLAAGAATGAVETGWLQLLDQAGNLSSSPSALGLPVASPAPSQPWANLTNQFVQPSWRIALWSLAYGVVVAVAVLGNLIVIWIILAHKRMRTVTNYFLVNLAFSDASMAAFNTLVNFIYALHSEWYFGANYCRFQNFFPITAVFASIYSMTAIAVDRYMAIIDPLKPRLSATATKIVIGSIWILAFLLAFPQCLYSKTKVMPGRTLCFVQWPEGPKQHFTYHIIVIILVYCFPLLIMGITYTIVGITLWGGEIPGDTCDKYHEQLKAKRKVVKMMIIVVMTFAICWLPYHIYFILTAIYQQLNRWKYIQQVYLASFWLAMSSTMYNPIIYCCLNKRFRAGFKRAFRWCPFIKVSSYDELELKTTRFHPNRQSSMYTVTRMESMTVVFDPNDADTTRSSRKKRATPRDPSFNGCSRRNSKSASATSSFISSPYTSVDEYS
# Description: as §1
# [2] = In vitro microsomal stability, rat; format: in vitro ADME; conditions: Rat (Wistar)
# Description: In vitro metabolic stability studies were performed to determine hepatic stability in vivo. CFMQ was incubated in liver microsomal preparations from mouse, rat, dog, mini-pig, and humans, as well as an additional study with monkey and human. CFMQ was incubated with human and animal liver microsomes at 0.3 mg/mL at 37° C. for 30 or 60 minutes. Additional reference compounds were incubated as controls. Following incubation, samples were analyzed by HPLC-MS/MS.
# diverse set of receptors = assay: Receptor binding and selectivity panel
# Description: as §1
# T1 sequence (P35372 whole entry): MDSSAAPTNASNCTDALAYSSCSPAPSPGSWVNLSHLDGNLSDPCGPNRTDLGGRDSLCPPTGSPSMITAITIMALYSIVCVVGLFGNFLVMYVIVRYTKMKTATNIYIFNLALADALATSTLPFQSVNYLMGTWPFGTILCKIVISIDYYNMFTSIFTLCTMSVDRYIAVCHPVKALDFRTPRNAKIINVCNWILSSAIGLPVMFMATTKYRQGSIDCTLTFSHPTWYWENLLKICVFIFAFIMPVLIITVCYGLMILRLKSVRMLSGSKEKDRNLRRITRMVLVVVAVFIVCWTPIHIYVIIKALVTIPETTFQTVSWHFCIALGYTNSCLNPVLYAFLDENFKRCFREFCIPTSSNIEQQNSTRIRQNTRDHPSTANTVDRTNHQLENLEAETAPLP
smiles,measurement,setting,value
"Cc1cc(Cl)c(COc2cccc3c(-n4cc(F)cn4)cc(C)nc23)c(Cn2cccc(C#N)c2=O)n1 [CFMQ, 1-((4-Chloro-3-(((4-(4-fluoro-1H-pyrazol-1-yl)-2-methylquinolin-8-yl)oxy)methyl)-6-methylpyridin-2-yl)methyl)-2-oxo-1,2-dihydropyridine-3-carbonitrile]",plasma value,plasma extravasation; oral 10.0 mg/kg,267 nM
same,inhibition of EB accumulation in the bladder,"plasma extravasation; oral 10 mg/kg, female WT mice",~100%
same,efficacy compared with 0.4 mg/kg SC Firazyr,"plasma extravasation; oral 10.0 mg/kg, female WT mice",equally effective
same,inhibition of EB accumulation in the bladder,"plasma extravasation; oral 30 mg/kg, female WT mice",~100%
same,minimally-effective dose (MED),"plasma extravasation; oral gavage, female WT mice",3.0 mg/kg
same,IC50,[1],6700 nM
same,Ki,[1],2700 nM
same,nH,[1],1.0
same,inhibition at 10 µM,[1]; CFMQ at 10 μM,54%
same,IC50,BZD (peripheral),1400 nM
same,Ki,BZD (peripheral),1200 nM
same,nH,BZD (peripheral),1.7
same,inhibition at 10 µM,BZD (peripheral); CFMQ at 10 μM,93%
same,IC50,NK3 (h),1100 nM
same,Ki,NK3 (h),2700 nM
same,nH,NK3 (h),1.1
same,inhibition at 10 µM,NK3 (h); CFMQ at 10 μM,53%
same,% Remaining [30 minutes],[2]; Female,76%
same,% Remaining [60 minutes],[2]; Female,60%
same,% Remaining [30 minutes],[2]; Male,3%
same,% Remaining [60 minutes],[2]; Male,0%
same,binding selectivity for B2-bradykinin receptor,diverse set of receptors,selective
